Data as given in US12559725B2, “Formulation comprising extracellular vesicles, method for producing the same, and uses thereof” (MacKay Memorial Hospital, priority 2018, dated 2026).

Key:
[1] = test system: cisplatin-induced hearing loss; assay: Cisplatin-induced hearing loss mouse model (ABR, organ of Corti explants); assay type: in vivo, C57BL/6 mice; details: intraperitoneal 0.1 ml day 1 to day 5; ABR threshold at 12 kHz, 10 days post-treatment
Method: In a mouse model of hearing loss, the inner cell damage was induced by administering to C57BL/6 mice 4 mg/kg cisplatin daily for 5 consecutive days, in which the mice were intraperitoneally treated with 0.1 ml PBS (serving as the negative control group), 0.1 ml ucMSC-naive-EVs or 0.1 ml EV-curcumin (about 120 ug protein of EVs, 2.2×10^11 to 2.8×10^11 vesicles) from day 1 to day 5. The protecting effect of ucMSC-naive-EVs and EV-curcumin was assessed by analyzing the cell number and function of the inner ear cells. To assess the protecting effect of the present EV formulation on hearing loss and inner ear cell death, auditory brain response (ABR) threshold at 12 kHz and immunofluorescence images of organ of Corti explants were measured 10 days post-treatment. To obtain the ucMSC-EVs preparations with and without curcumin incorporation enough for the animal study requiring a larger amount of EVs for daily intraperitoneal injection, the ucMSC-EVs in paired formulations with and without curcumin incorporation were prepared and stored at −80° C. for at least 3 months. To make sure homogeneous application of ucMSC-EV to each mouse, different batches of EVs were thawed and mixed for the experiment right before the animal study. One-way ANOVA with Duncan post hoc test was performed when compared with the control or cisplatin group.

[2] = test system: U937 myeloid cells; assay: Reactive oxygen species in PMA-stimulated U937 myeloid cells (DCFH flow cytometry); assay type: cell-based; details: EVs 0.15 mg/ml, curcumin 0.8 mM, 30 minutes, vs medium only
Method: The U937 myeloid cells were seeded in 24-well plate at a density of 8×10^4 cells/well (in 0.4 ml) followed by the stimulation of 100 nM PMA (phorbol myristate acetate) at 37° C., 5% CO2 incubator for 48 hours. The cells were washed with PBS twice before adding medium with and without ucMSC-naive-EVs (0.15 mg/ml), curcumin (Cur, 0.8 mM) or EV-curcumin (Cur/EVs, 0.8 mM) for 30 minutes. The reactions were incubated with DCFH ([…]) at 1 uM for 20 minutes before flow cytometric analysis of H2O2-mediated fluorescence at 480 nm emission.

[3] = test system: mouse model of anti-aging; assay: D-galactose aging mouse model, Morris water maze; assay type: in vivo, BALB/c mice; details: D-galactose 6 weeks, then intraperitoneal three times a week for 3 weeks
Method: In a mouse model of anti-aging, BALB/c mice were subcutaneously treated with 100 mg/kg D-galactose every day for 6 consecutive weeks. Then, the mice were intraperitoneally administered with 0.1 ml PBS (serving as the negative control group), 0.1 ml curcumin (1 μM), 0.1 ml ucMSC-naive-EVs, 0.1 ml EV-curcumin (about 120 ug protein of EVs, 2.2×10^11 vesicles), or 5 mg/kg β-lapachone three times a week for 3 weeks after 6 weeks of aging induction and the pre-test of cognition assessment. The anti-aging effect of ucMSC-naive-EVs and EV-curcumin was then assessed by the cognition ability in Morris water maze model.

SMILES: COc1cc(/C=C/C(=O)CC(=O)/C=C/c2ccc(O)c(OC)c2)ccc1O [curcumin]
- cisplatin-induced hearing loss (ABR) [1]: not curcumin alone
- production of reactive oxygen species (H2O2-mediated fluorescence) [2]: significantly decreased the production of reactive oxygen species
- time to reach the safety island (escape latency), Morris water maze [3]: obviously reduced the time to reach the safety island

SMILES: CC1(C)CCC2=C(O1)c1ccccc1C(=O)C2=O [β-lapachone]
- time to reach the safety island (escape latency), Morris water maze [3]: obviously reduced the time to reach the safety island
